Assay results as given in patent publication US20220348590A1, “CYCLOOXYGENASE-2 INHIBITORS AND USES THEREOF” (The Board Institute, Inc., priority 2019, published 2022).
In brackets after ≈: the same amount, converted by molar mass. Read-outs that look alike come from different tables or passages of the source.

Assays:
[1] = Rat Plasma Protein Stability (% Remaining); assay type: in vitro ADME; conditions: average
[2] = PBS Solubility (no DMSO); assay type: physicochemical; conditions: aqueous buffer, thermodynamic from solid, average
[3] = rat plasma protein binding (PPB) assay; assay type: in vitro ADME; conditions: average, read-out: Rat Plasma Protein Binding % Bound Avg (converted)
Experimental: (§1) We have adapted a previously reported cyclooxygenase enzymatic assay utilizing LCMS quantification of PGE2 as the product of COX-1 and COX2 catalyzed conversion of arachidonic acid to evaluate the binding properties of newly synthesized ligands [Cao, 2011]. These optimized and miniaturized (384-well plates) LCMS-based COX-1 and COX2 enzymatic assays enabled us to quickly evaluate newly synthesized ligands for COX2 binding affinity and selectivity vs COX-1. Using a shorter ligand-enzyme incubation time in the LCMS assay (2 minutes vs 10 minutes) also permitted us to prioritize ligands with faster binding kinetics. Considering the relatively slow on-rate kinetics of known coxibs, due to their 3-step binding mechanism [Marnett, 2009], we believe that optimizing this critical parameter will be key to the successful development of a COX2 PET tracer. Using these enzymatic assays, we have evaluated>200 newly synthesized ligands against COX2 and >20 ligands against COX-1. Another critical property necessary for a good PET radiotracer is to have low non-specific binding (NSB) to increase the free fraction and maximize the signal to noise ratio. This property can be evaluated using in-vitro protein binding assays, and we have now evaluated>50 newly synthesized ligands in mouse, rat and human plasma protein binding (PPB) assays as well as >15 ligands in a mouse brain protein binding (BPB) assay.

[4] = molecular target: T1, human recombinant COX2 (hCOX2) (UniProt P35354); assay: LCMS-based COX2 enzymatic inhibition assay (PGE2 quantification); assay type: biochemical; set-up: COX2 2 minutes pge2/pge2d4 area ratio Avg; other: 2 minutes; readout pge2/pge2d4 area ratio; average; COX2 2 minutes pge2/pge2d4 area ratio Avg; LLE; average LLE; COX2 2 minutes pge2 area (counts) Avg; readout pge2 area (counts); other: 2 min; "ovine COX2 (oCOX2), human recombinant COX2 (hCOX2)"; conditions: for IC50: average
T1 sequence (P35354 1-604): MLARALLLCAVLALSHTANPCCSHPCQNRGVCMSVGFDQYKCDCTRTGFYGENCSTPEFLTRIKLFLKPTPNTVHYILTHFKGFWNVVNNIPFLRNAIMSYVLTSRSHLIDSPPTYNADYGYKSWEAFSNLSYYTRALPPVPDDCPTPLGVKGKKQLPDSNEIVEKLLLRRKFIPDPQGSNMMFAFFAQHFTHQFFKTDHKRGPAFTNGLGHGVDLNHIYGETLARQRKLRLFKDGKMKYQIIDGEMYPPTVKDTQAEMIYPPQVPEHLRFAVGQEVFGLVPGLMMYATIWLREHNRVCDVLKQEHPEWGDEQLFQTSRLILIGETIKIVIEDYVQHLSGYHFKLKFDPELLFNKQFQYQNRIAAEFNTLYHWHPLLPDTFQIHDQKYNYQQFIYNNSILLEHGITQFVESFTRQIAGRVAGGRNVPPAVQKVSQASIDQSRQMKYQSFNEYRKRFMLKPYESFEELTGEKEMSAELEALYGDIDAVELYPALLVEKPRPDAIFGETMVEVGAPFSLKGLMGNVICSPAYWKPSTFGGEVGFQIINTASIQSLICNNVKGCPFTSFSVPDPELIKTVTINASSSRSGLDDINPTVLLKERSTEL
Method in brief: (§2)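 PGE2 formed from arachidonic acid (final 5 μM, 2 min) was measured by LC-MS-MS against DMSO controls. Enzyme (oCOX-1 0.1 μg or hCOX2 0.2 μg) with hematin/epinephrine cofactors at pH 8.0 was given 10 min at 37 °C with compound first. Twelve-point curves run three times gave IC50.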

[5] = molecular target: T2, ovine COX-1 (oCOX-1) (Ovis aries, UniProt P05979); assay: LCMS-based COX-1 enzymatic inhibition assay (PGE2 quantification); assay type: biochemical; conditions: for COX1 10 minutes pge2/pge2d4 area ratio Avg. LLE / COX1 10 minutes pge2 area (counts) Avg. LLE: average LLE
T2 construct: purchased Cayman Chemicals (Ann Arbor, Mich.)
T2 sequence (P05979 25-600): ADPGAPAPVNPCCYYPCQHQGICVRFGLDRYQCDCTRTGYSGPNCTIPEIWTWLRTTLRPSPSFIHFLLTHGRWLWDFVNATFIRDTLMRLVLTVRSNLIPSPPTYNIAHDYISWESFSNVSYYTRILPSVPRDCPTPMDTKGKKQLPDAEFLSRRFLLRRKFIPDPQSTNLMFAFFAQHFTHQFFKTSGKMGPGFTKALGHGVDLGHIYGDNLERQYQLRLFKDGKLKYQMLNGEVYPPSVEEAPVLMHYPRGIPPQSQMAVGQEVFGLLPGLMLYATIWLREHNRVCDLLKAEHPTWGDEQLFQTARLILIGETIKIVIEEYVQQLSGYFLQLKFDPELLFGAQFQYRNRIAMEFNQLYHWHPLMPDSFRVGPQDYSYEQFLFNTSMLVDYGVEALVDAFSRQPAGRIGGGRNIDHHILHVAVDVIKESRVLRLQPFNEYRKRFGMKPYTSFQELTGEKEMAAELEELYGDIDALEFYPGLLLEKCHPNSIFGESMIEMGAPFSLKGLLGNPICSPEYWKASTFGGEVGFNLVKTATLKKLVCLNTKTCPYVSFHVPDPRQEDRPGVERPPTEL
Method in brief: as §2

[6] = Human Plasma Protein Stability (% Remaining); assay type: in vitro ADME; conditions: average
[7] = Human Microsome Stability; assay type: in vitro ADME; conditions: human microsomes
[8] = human plasma protein binding (PPB) assay; assay type: in vitro ADME; conditions: average, read-out: Human Plasma Protein Binding % Bound Avg (converted)
Experimental: as §1

[9] = mouse plasma protein binding (PPB) assay; assay type: in vitro ADME; conditions: average, read-out: Mouse Plasma Protein Binding % Bound Avg (converted)
Experimental: as §1

[10] = Mouse Plasma Protein Stability (% Remaining); assay type: in vitro ADME; conditions: average
[11] = 2 minutes, readout pge2/pge2d4 area ratio, average LLE
[12] = 2 minutes, readout pge2/pge2d4 area ratio, read-out: COX2 2 minutes pge2/pge2d4 area ratio Avg. IC50
[13] = 2 minutes, readout pge2 area (counts), average LLE
[14] = 2 minutes, readout pge2 area (counts), read-out: COX2 2 minutes pge2 area (counts) Avg. IC50
[15] = 10 minutes, readout pge2/pge2d4 area ratio
[16] = 10 minutes, readout pge2/pge2d4 area ratio, average, read-out: COX1 10 minutes pge2/pge2d4 area ratio Avg. IC50
[17] = 10 minutes, readout pge2 area (counts)
[18] = 10 minutes, readout pge2 area (counts), average, read-out: COX1 10 minutes pge2 area (counts) Avg. IC50

Compound	Rat Plasma Protein Stability % Remaining Avg [1] [%]	solubility [2] [µM]	fraction unbound [3]	COX2 2 minutes pge2/pge2d4 area ratio Avg. LLE [4, 11]	IC50 [4, 12] [µM]	COX2 2 minutes pge2 area (counts) Avg. LLE [4, 13]	IC50 [4, 14] [µM]	COX1 10 minutes pge2/pge2d4 area ratio Avg. LLE [5, 15]	IC50 [5, 16] [µM]	COX1 10 minutes pge2 area (counts) Avg. LLE [5, 17]	IC50 [5, 18] [µM]	Human Plasma Protein Stability % Remaining Avg [6] [%]	Human Microsome Stability % Remaining Avg [7] [%]	fraction unbound [8]	fraction unbound [9]	Mouse Plasma Protein Stability % Remaining Avg [10] [%]	COX2 10 minutes pge2 area (counts) Avg. LLE ([4]; 10 minutes, readout pge2 area (counts), average LLE)	IC50 ([4]; 10 minutes, readout pge2 area (counts), read-out: COX2 10 minutes pge2 area (counts) Avg. IC50) [µM]	IC50 [5] [µM]
CS(=O)(=O)c1ccc(-c2cncc(SCc3ccoc3)n2)cc1 [Compound 12]	95	7.4 (≈ 2.56 µg/mL)	0.006	5.445	0.00844	5.417	0.00978	1.784	38.5	1.801	37.7	–	–	–	–	–	–	–	–
CS(=O)(=O)c1ccc(-c2cccc(OCc3ccsc3)n2)cc1 [Compound 9]	121	3.7 (≈ 1.28 µg/mL)	0.003	4.3	0.00803	4.276	0.00891	0.4674	48.9	–	–	114	35	0.003	–	–	–	–	–
CN(Cc1cccs1)c1cncc(-c2ccc(S(C)(=O)=O)cc2)n1 [Compound 51]	–	–	–	5.185	0.0239	5.211	0.0232	3.094	2.93	3.234	2.23	–	–	–	0.015	109.5	6.088	0.00357	–
CCOc1ncc(NCc2cccs2)nc1-c1ccc(S(C)(=O)=O)cc1 [Compound 25]	–	–	–	5.041	0.0118	4.857	0.0196	1.374	–	1.374	–	–	–	–	0.015	93.1	–	–	52
NS(=O)(=O)c1ccc(-c2cncc(OCc3cccs3)n2)cc1 [Compound 3]	–	8.5 (≈ 2.95 µg/mL)	–	6.484	0.00555	6.512	0.00538	4.28	1.1	4.323	0.913	–	–	–	0.015	94.9	–	–	–
CS(=O)(=O)c1ccc(-c2nc(OCc3cccs3)cc3ccoc23)cc1 [Compound 5]	99	–	0.001	–	0.00605	–	0.00714	–	–	–	–	102	–	0.001	–	–	–	–	–
